The target in test [1] is T1, PI3Kγ (Homo sapiens, UniProt P48736).
T1 construct: host or cells: THP-1
The experiment in a line: PI3Kγ cellular assay in THP-1 cells (AKT pS473 AlphaLISA). In kind it is cell-based. In short, it runs like this: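 Endogenous AKT S473 phosphorylation, detected by AlphaLISA in lysates, serves as the PI3Kγ activity read-out in stimulated, serum-starved THP-1 cells (1.8×10^5/well).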
Background: Bead proximity is the source of the signal in Alpha formats.

Test [2] addresses T2, PI3Kγ (p120γ) (Homo sapiens, UniProt P48736).
T2 construct: purchased Promega V1761
Kind of test: Inhibition of PI3K kinase activity (ADP Glo), PI3Kγ. Particulars: read-out: biochemical potency (PI3Kγ IC50). In short, it runs like this: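 IC50 values come from a 4-parameter nonlinear fit of ADP-Glo luminescence, which measures ADP produced as PIP2 is phosphorylated to PIP3. The p120γ enzyme (2× stock 8 nM) sat with compound 1 h at rt before substrate (2× stocks: 50 μM ATP, 0.1 mg/ml PIP2) was added. Phosphorylation then proceeded 60 min at rt.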
On the technique in general: ADP-Glo turns the ADP formed in a reaction into a luminescent signal.

[3] abbreviates: Table 6, rhMCP-1 stimulated AKT pS473, read-out: cellular potency (PI3Kγ IC50).
Where [4] appears, read: AKT pS473, read-out: cellular potency (PI3Kγ IC50).
The mark [5] stands for this setting: Table 1, rhMCP-1 stimulated AKT pS473, read-out: cellular potency (PI3Kγ IC50).
Where [6] appears, read: Table 2, rhMCP-1 stimulated AKT pS473, read-out: cellular potency (PI3Kγ IC50).

Read-outs that look alike come from different tables or passages of the source. Bounds are passed on as bounds.

T2 sequence (P48736 whole entry): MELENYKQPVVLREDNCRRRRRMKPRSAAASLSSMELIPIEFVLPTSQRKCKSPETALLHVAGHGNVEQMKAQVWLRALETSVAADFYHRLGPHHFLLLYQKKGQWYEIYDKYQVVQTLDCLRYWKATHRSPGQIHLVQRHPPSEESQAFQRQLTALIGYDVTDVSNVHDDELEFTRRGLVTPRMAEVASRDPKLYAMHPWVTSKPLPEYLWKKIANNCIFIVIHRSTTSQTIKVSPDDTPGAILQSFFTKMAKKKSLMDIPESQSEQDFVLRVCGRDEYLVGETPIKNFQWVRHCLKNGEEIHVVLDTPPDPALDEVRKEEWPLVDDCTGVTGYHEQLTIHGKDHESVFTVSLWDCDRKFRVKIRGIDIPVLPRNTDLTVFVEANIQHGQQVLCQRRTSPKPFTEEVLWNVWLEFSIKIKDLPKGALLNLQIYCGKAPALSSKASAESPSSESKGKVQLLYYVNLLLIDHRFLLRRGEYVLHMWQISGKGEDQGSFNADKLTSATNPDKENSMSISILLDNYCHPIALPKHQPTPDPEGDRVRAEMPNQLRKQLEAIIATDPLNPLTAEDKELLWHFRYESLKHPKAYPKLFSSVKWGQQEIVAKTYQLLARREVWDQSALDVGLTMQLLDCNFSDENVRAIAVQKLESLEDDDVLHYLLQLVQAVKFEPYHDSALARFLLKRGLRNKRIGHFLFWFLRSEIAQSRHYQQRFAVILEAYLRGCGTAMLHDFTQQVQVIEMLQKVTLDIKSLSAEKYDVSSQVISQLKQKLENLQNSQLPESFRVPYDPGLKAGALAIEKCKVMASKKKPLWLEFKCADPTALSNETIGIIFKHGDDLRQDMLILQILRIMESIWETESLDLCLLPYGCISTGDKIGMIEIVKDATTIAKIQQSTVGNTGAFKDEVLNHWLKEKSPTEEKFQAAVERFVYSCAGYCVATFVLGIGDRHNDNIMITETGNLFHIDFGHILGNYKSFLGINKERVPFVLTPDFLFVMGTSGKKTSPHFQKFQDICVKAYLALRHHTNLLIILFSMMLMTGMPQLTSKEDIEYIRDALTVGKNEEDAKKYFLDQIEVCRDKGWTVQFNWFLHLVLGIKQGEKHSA
T1 sequence (P48736 whole entry): as above

On to `C[C@@H](C1CC1)N1Cc2cc(-c3ccn4nc(N)c(C(=O)N[C@H]5CCC[C@@H](N)C5)c4n3)cc(OC(F)(F)F)c2C1=O` [Example 426], for which the IC50 in test [1] (setting [3]) was 100 to 1000 nM; in test [2] (Table 6, p120γ), less than 100 nM.
As for `CC(C)[C@H](CO)NC(=O)c1c(N)nn2ccc(-c3cc4c(c(NS(C)(=O)=O)c3)C(=O)N([C@@H](C3CC3)C(F)(F)F)C4)nc12` [Example 400], the IC50 is 100 to 1000 nM in test [1] (setting [4]) and less than 100 nM in test [2].
`C[C@@H](C1CC1)N1Cc2cc(-c3ccn4nc(N)c(C(=O)NC5COC5)c4n3)cc(C(F)(F)F)c2C1=O` [Example 53, 2-[(S)-1-Cyclopropylethyl]-5-{2-amino-3-[(3-oxetanylamino)carbonyl]-1,4,7a-triaza-5-indenyl}-7-(trifluoromethyl)-1-isoindolinone]: the IC50 in test [1] (setting [5]) was less than 100 nM; in test [2] (Table 1, p120γ), less than 100 nM.
`Cc1cc(-c2ccn3nc(N)c(C(=O)N[C@@H]4CCCNC4)c3n2)cc2c1C(=O)N([C@@H](C)C1CC1)C2` [Example 231]: the IC50 in test [1] (setting [6]) was 100 to 1000 nM; in test [2] (Table 2, p120γ), less than 100 nM.
Consider `CCNC(=O)c1c(N)nn2ccc(-c3cc4c(c(NS(C)(=O)=O)c3)C(=O)N([C@@H](C)C3CC3)C4)nc12` [Example 74, 2-Amino-5-{2-[(1S)-1-cyclopropylethyl]-7-methanesulfonamido-1-oxo-2,3-dihydro-1H-isoindol-5-yl}-N-ethylpyrazolo[1,5-a]pyrimidine-3-carboxamide], for which the IC50 in test [1] (setting [5]) is less than 100 nM; in test [2] (Table 1, p120γ), less than 100 nM.
As for `C[C@@H](C1CC1)N1Cc2cc(-c3ccn4nc(N)c(C(=O)N[C@@H]5CC[C@@H](O)C5)c4n3)cc(NS(C)(=O)=O)c2C1=O` [Example 86, 2-Amino-5-{2-[(1S)-1-cyclopropylethyl]-7-methanesulfonamido-1-oxo-2,3-dihydro-1H-isoindol-5-yl}-N-[(1R,3R)-3-hydroxycyclopentyl]pyrazolo[1,5-a]pyrimidine-3-carboxamide], the IC50 was less than 100 nM in test [1] (setting [5]) and less than 100 nM in test [2] (Table 1, p120γ).
As to `C[C@@H](C1CC1)N1Cc2cc(-c3ccn4nc(N)c(C(=O)NC5CC5)c4n3)cc(N(C)S(C)(=O)=O)c2C1=O` [Example 114, 2-Amino-N-cyclopropyl-5-{2-[(1S)-1-cyclopropylethyl]-7-(N-methylmethanesulfonamido)-1-oxo-2,3-dihydro-1H-isoindol-5-yl}pyrazolo[1,5-a]pyrimidine-3-carboxamide], the IC50 in test [1] (setting [5]) is less than 100 nM; in test [2] (Table 1, p120γ) it was less than 100 nM.
Turning to `Cc1cc(-c2ccn3nc(N)c(C(=O)NCc4cnn(C)c4)c3n2)cc2c1C(=O)N([C@@H](C)C1CC1)C2` [Example 214], the IC50 in test [1] (setting [6]) was 100 to 1000 nM; in test [2] (Table 2, p120γ) it was less than 100 nM.
In the case of `C[C@@H](C1CC1)N1Cc2cc(-c3ccn4nc(N)c(C(=O)N[C@H]5CCNC5=O)c4n3)cc(O[C@@H]3CCOC3)c2C1=O` [Example 441], the half-inhibitory concentration (IC50) was more than 1000 nM in test [1] (setting [3]) and less than 100 nM in test [2] (Table 6, p120γ).
Take `C[C@@H](C1CC1)N1Cc2cc(-c3ccn4nc(N)c(C(=O)N[C@@H]5COC[C@H]5O)c4n3)cc(OC(F)(F)F)c2C1=O` [Example 38, 2-Amino-5-{2-[(1S)-1-cyclopropylethyl]-1-oxo-7-(trifluoromethoxy)-2,3-dihydro-1H-isoindol-5-yl}-N-[(3R,4S)-4-hydroxyoxolan-3-yl]pyrazolo[1,5-a]pyrimidine-3-carboxamide]: the IC50 was less than 100 nM in test [1] (setting [5]) and less than 100 nM in test [2] (Table 1, p120γ).
Regarding `CNS(=O)(=O)c1cc(-c2ccn3nc(N)c(C(=O)NC4CC4)c3n2)cc2c1C(=O)N([C@@H](C)C(F)(F)F)C2` [Example 139, 2-Amino-N-cyclopropyl-5-[7-(methylsulfamoyl)-1-oxo-2-[(2S)-1,1,1-trifluoropropan-2-yl]-2,3-dihydro-1H-isoindol-5-yl]pyrazolo[1,5-a]pyrimidine-3-carboxamide], the IC50 is less than 100 nM in test [1] (setting [5]) and less than 100 nM in test [2] (Table 1, p120γ).
For `C[C@@H](C1CC1)N1Cc2cc(-c3ccn4nc(N)c(C(N)=O)c4n3)cc(NS(C)(=O)=O)c2C1=O` [Example 76, 5-{2-[(S)-1-Cyclopropylethyl]-7-(methylsulfonylamino)-5-isoindolinoyl}-2-amino-1,4,7a-triaza-3-indenecarboxamide], the IC50 was 100 to 1000 nM in test [1] (setting [5]) and less than 100 nM in test [2] (Table 1, p120γ).
In the same order, the values of `C[C@@H](C1CC1)N1Cc2cc(-c3ccn4nc(N)c(C(=O)Nc5cnn(CC(F)(F)F)c5)c4n3)cc(NS(C)(=O)=O)c2C1=O` [Example 106, 2-Amino-5-{2-[(1S)-1-cyclopropylethyl]-7-methanesulfonamido-1-oxo-2,3-dihydro-1H-isoindol-5-yl}-N-[1-(2,2,2-trifluoroethyl)-1H-pyrazol-4-yl]pyrazolo[1,5-a]pyrimidine-3-carboxamide] are less than 100 nM and less than 100 nM.
As to `Cc1cc(-c2ccn3nc(N)c(C(=O)NC[C@@H]4CCC(=O)N4)c3n2)cc2c1C(=O)N([C@@H](C)C1CC1)C2` [Example 271], the IC50 in test [1] (setting [6]) was 100 to 1000 nM; in test [2] (Table 2, p120γ), less than 100 nM.
In the case of `C[C@@H](C1CC1)N1Cc2cc(-c3ccn4nc(N)c(C(=O)N[C@@H](CO)C5CC5)c4n3)cc(O[C@@H]3CCOC3)c2C1=O` [Example 147, 2-Amino-N-[(1R)-1-cyclopropyl-2-hydroxyethyl]-5-{2-[(1S)-1-cyclopropylethyl]-1-oxo-7-[(3R)-oxolan-3-yloxy]-2,3-dihydro-1H-isoindol-5-yl}pyrazolo[1,5-a]pyrimidine-3-carboxamide], the half-inhibitory concentration (IC50) in test [1] (setting [5]) was less than 100 nM; in test [2] (Table 1, p120γ), less than 100 nM.
For the molecule `Cc1cc(-c2ccn3nc(N)c(C(=O)N[C@H](C)CO)c3n2)cc2c1C(=O)N([C@@H](C)C1CC1)C2` [Example 206], the IC50 was 100 to 1000 nM in test [1] (setting [6]) and less than 100 nM in test [2] (Table 2, p120γ).
In the same order, the values of `Cc1cc(-c2ccn3nc(N)c(C(=O)NC(C)(C)c4ccncc4)c3n2)cc2c1C(=O)N([C@@H](C)C1CC1)C2` [Example 248] are 100 to 1000 nM and less than 100 nM.
In the same order, the values of `Cc1cc(-c2ccn3nc(N)c(C(=O)N[C@H]4CC[C@H](O)CC4)c3n2)cc2c1C(=O)N([C@@H](C)C1CC1)C2` [Example 172] are 100 to 1000 nM and less than 100 nM.
`C[C@@H](C1CC1)N1Cc2cc(-c3ccn4nc(N)c(C(=O)N[C@@H]5CCC[C@H]5O)c4n3)cc(OC(F)(F)F)c2C1=O` [Example 35, 2-Amino-5-{2-[(1S)-1-cyclopropylethyl]-1-oxo-7-(trifluoromethoxy)-2,3-dihydro-1H-isoindol-5-yl}-N-[(1R,2R)-2-hydroxycyclopentyl]pyrazolo[1,5-a]pyrimidine-3-carboxamide]: the IC50 in test [1] (setting [5]) was less than 100 nM; in test [2] (Table 1, p120γ) it was less than 100 nM.
Consider `Cc1cc(-c2ccn3nc(N)c(C(=O)Nc4cn(C)nc4C)c3n2)cc2c1C(=O)N([C@@H](C)C1CC1)C2` [Example 292], for which the IC50 in test [1] (setting [6]) is 100 to 1000 nM; in test [2] (Table 2, p120γ) it was less than 100 nM.
Turning to `C[C@@H](C1CC1)N1Cc2cc(-c3ccn4nc(N)c(C(=O)NC5CCS(=O)(=O)CC5)c4n3)cc(C(F)(F)F)c2C1=O` [Example 347], the IC50 was 100 to 1000 nM in test [1] (Table 3, rhMCP-1 stimulated AKT pS473, read-out: cellular potency (PI3Kγ IC50)) and less than 100 nM in test [2] (Table 3, p120γ).
As for `C[C@@H](C1CC1)N1Cc2cc(-c3ccn4nc(N)c(C(=O)N[C@H]5CCNC5=O)c4n3)cc(C(F)(F)F)c2C1=O` [Example 49, 2-Amino-5-{2-[(1S)-1-cyclopropylethyl]-1-oxo-7-(trifluoromethyl)-2,3-dihydro-1H-isoindol-5-yl}-N-[(3S)-2-oxopyrrolidin-3-yl]pyrazolo[1,5-a]pyrimidine-3-carboxamide], the IC50 in test [1] (setting [5]) was less than 100 nM; in test [2] (Table 1, p120γ), less than 100 nM.
For `CCNC(=O)c1c(N)nn2ccc(-c3cc(C)c4c(c3)CN([C@@H](C)C3CC3)C4=O)nc12` [Example 233], the IC50 in test [1] (setting [6]) was 100 to 1000 nM; in test [2] (Table 2, p120γ), less than 100 nM.
Turning to `C[C@@H](C1CC1)N1Cc2cc(-c3ccn4nc(N)c(C(=O)NC5CC5)c4n3)cc(F)c2C1=O` [Example 370], the IC50 in test [1] (setting [4]) was 100 to 1000 nM; in test [2], less than 100 nM.
As for `Cc1cc(-c2ccn3nc(N)c(C(=O)N[C@H]4CCCC[C@H]4O)c3n2)cc2c1C(=O)N([C@@H](C)C1CC1)C2` [Example 275], the IC50 was 100 to 1000 nM in test [1] (setting [6]) and less than 100 nM in test [2] (Table 2, p120γ).
Take `C[C@@H](C1CC1)N1Cc2cc(-c3ccn4nc(N)c(C(=O)Nc5ccc(C(C)(C)O)cc5)c4n3)cc(OC(F)(F)F)c2C1=O` [Example 419]: the IC50 in test [1] (setting [3]) is 100 to 1000 nM; in test [2] (Table 6, p120γ) it was less than 100 nM.
For the molecule `CC(CO)NC(=O)c1c(N)nn2ccc(-c3cc(F)c4c(c3)CN([C@@H](C)C3CC3)C4=O)nc12` (stereo partly shown) [Example 369], the half-maximal inhibitory concentration (IC50) in test [1] (setting [4]) is 100 to 1000 nM; in test [2], less than 100 nM.
Turning to `C[C@@H](C1CC1)N1Cc2cc(-c3ccn4nc(N)c(C(=O)N[C@H]5C[C@H](O)C5)c4n3)cc(S(C)(=O)=O)c2C1=O` [Example 445], the IC50 in test [1] (setting [3]) is 100 to 1000 nM; in test [2] (Table 6, p120γ), less than 100 nM.
For the molecule `Cc1cc(-c2ccn3nc(N)c(C(=O)N[C@H]4c5ccccc5C[C@H]4O)c3n2)cc2c1C(=O)N([C@@H](C)C1CC1)C2` [Example 284], the IC50 in test [1] (setting [6]) is more than 1000 nM; in test [2] (Table 2, p120γ), less than 100 nM.

The term IC50 denotes the point on the concentration scale where inhibition reaches its midpoint.

For the origin of these results see US20230024302A1, “2,3,5-TRISUBSTITUTED PYRAZOLO[1,5-A]PYRIMIDINE COMPOUNDS” (Arcus Biosciences, Inc., priority 2019, published 2023).
